How the values were obtained:
[1] = Plasma stability of cannabidiol prodrugs (bioconversion to parent drug); assay type: in vitro ADME; details: Table 20, di-prodrug in plasma; for % mono-prodrug at time (h): mono-prodrug formed
Description: An approximated 1 mg/mL stock solution of each prodrug was prepared in 100 μL of ethanol and 900 μL of acetonitrile. Ten (10) μL of stock was spiked into 1 mL of plasma and vortexed. The samples were kept sealed in an amber vial and samples were obtained to analyze for bioconversion to parent drug.

[2] = system: human abdominal skin; assay: In vitro human skin permeation and skin disposition, flow-through diffusion cells (Examples 2, 2A, 2B); assay type: in vitro ADME; details: for Flux enhancement: total cannabidiol versus cannabidiol
Procedure, shortened: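 Dermatomed (~200 μm) frozen human abdominal skin was mounted in flow-through cells at 32° C (0.95 cm^2), stratum corneum to donor. Donors were 0.10 mL 45:4:1 PG:H2O:IPM solution or 50 μL gel; receiver was 40% PEG 400 (HEPES-Hanks pH 7.4 or aqueous) with gentamicin at 0.8 mL/h. Samples were taken every 3 h for 24-42 h; skin accumulation was expressed as μmol/g wet tissue.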

[3] = Table 19, gel formulation, 40% aqueous PEG 400 receiver fluid, as applied compound (CBD or intact prodrug)
[4] = Table 19, gel formulation, 40% aqueous PEG 400 receiver fluid, mono-prodrug (ALL00150) from applied di-prodrug
[5] = Table 19, gel formulation, 40% aqueous PEG 400 receiver fluid, prodrug applied, as total cannabidiol equivalents
[6] = Table 18, 90:8:2 PG:H2O:IPM donor solution, 40% aqueous PEG 400 receiver fluid, CBD from applied prodrug
[7] = Table 18, 90:8:2 PG:H2O:IPM donor solution, 40% aqueous PEG 400 receiver fluid, mono-prodrug from applied di-prodrug
[8] = Table 18, 90:8:2 PG:H2O:IPM donor solution, 40% aqueous PEG 400 receiver fluid, prodrug applied, as total cannabidiol equivalents
[9] = Table 16, 90:8:2 PG:H2O:IPM donor solution, 60/40 Hanks'/PEG 400 receiver fluid, as applied compound (CBD or intact prodrug)
[10] = Table 17, 90:8:2 PG:H2O:IPM donor solution, 40% aqueous PEG 400 receiver fluid, as applied compound (CBD or intact prodrug)
[11] = Table 18, 90:8:2 PG:H2O:IPM donor solution, 40% aqueous PEG 400 receiver fluid, as applied compound (CBD or intact prodrug)
[12] = Table 21, gel formulation, 40% aqueous PEG 400 receiver fluid, as applied compound (CBD or intact prodrug)
[13] = Table 23, gel formulation, 40% aqueous PEG 400 receiver fluid, as applied compound (CBD or intact prodrug)

C=C(C)[C@@H]1CCC(C)=C[C@H]1c1c(OC(=O)CCN(C)C)cc(CCCCC)cc1OC(=O)CCN(C)C [ALL00101, CBD bis(3-(dimethylamino)propionate)]
% mono-prodrug at time (h) ([1]; 1 h): 22% | % mono-prodrug at time (h) ([1]; 20 h): 11% | % Di-prodrug at time (h) ([1]; 0 h): 100% | % Di-prodrug at time (h) ([1]; 1 h): 75% | % Di-prodrug at time (h) ([1]; 20 h): 1% | 24 h skin conc ([2]; Table 19, gel formulation, 40% aqueous PEG 400 receiver fluid, CBD from applied prodrug): 13.2 ± 10.4 µmol/g | 24 h skin conc [2, 3]: 0.8 ± 0.6 µmol/g | 24 h cumulative amt [2, 4]: 8.4 ± 1.3 nmol | 24 h skin conc [2, 4]: 34.7 ± 27.7 µmol/g | Flux [2, 4]: 0.4 ± 0.03 nmol/cm^2/h | Lag time [2, 4]: 2.9 ± 1.9 h | 24 h cumulative amt [2, 5]: 8.4 ± 1.3 nmol | 24 h skin conc [2, 5]: 48.7 ± 38.6 µmol/g | Flux [2, 5]: 0.4 ± 0.03 nmol/cm^2/h | Lag time [2, 5]: 2.9 ± 1.9 h | Flux enhancement ([2]; Table 19, gel formulation, 40% aqueous PEG 400 receiver fluid): 0.52 | detected in the skin as ([2]; in gel formulation): trace small amounts of intact prodrug but mostly as mono-substituted prodrug, ALL00150, and cannabidiol | flux compared to cannabidiol ([2]; in gel formulation): did not increase the flux | lag time compared to cannabidiol ([2]; in gel formulation): decreased | permeated through the skin as ([2]; in gel formulation): mono-substituted prodrug (ALL00150) only | total skin concentrations compared to cannabidiol ([2]; in gel formulation): higher

C=C(C)C1CCC(C)=CC1c1c(OC(=O)CN(C)C)cc(CCCCC)cc1OC(=O)CN(C)C (centres unmarked) [ALL00105, CBD bis(N,N-dimethylglycinate)]
% mono-prodrug at time (h) ([1]; 2 h): 0% | % mono-prodrug at time (h) ([1]; 4 h): 0% | % mono-prodrug at time (h) ([1]; 22 h): 0% | % mono-prodrug at time (h) ([1]; 24 h): 0% | % Di-prodrug at time (h) ([1]; 0 h): 100% | % Di-prodrug at time (h) ([1]; 2 h): 92% | % Di-prodrug at time (h) ([1]; 4 h): 88% | % Di-prodrug at time (h) ([1]; 22 h): 58% | % Di-prodrug at time (h) ([1]; 24 h): 55% | 30 h cumulative amt [2, 6]: 6.9 ± 0.0 nmol | 30 h skin conc [2, 6]: 30.0 ± 0.0 µmol/g | Flux [2, 6]: 0.6 ± 0.0 nmol/cm^2/h | Lag time [2, 6]: 18.6 ± 0.0 h | 30 h cumulative amt [2, 7]: 15.4 ± 0.0 nmol | 30 h skin conc [2, 7]: 40.2 ± 0.0 µmol/g | Flux [2, 7]: 1.0 ± 0.0 nmol/cm^2/h | Lag time [2, 7]: 13.0 ± 0.0 h | 30 h cumulative amt [2, 8]: 22.3 ± 0.0 nmol | 30 h skin conc [2, 8]: 70.2 ± 0.0 µmol/g | Flux [2, 8]: 1.6 ± 0.0 nmol/cm^2/h | Lag time [2, 8]: 15.2 ± 0.0 h | Flux enhancement ([2]; Table 18, 90:8:2 PG:H2O:IPM donor solution, 40% aqueous PEG 400 receiver fluid): 0.19 | detected in the skin as ([2]; in donor solution): mono-substituted prodrug, ALL00148, and cannabidiol | flux compared to cannabidiol ([2]; in donor solution): did not increase the flux | lag time compared to cannabidiol ([2]; in donor solution): not decreased | permeated through the skin as ([2]; in donor solution): mono-substituted prodrug (ALL00148) and cannabidiol | total skin concentrations compared to cannabidiol ([2]; in donor solution): higher

C=C(C)[C@@H]1CCC(C)=C[C@H]1c1c(O)cc(CCCCC)cc1O [cannabidiol, reference compound]
42 h cumulative amt [2, 9]: 154.4 ± 39.5 nmol | 42 h skin conc [2, 9]: 19.0 ± 12.8 µmol/g | Flux [2, 9]: 6.5 ± 0.7 nmol/cm^2/h | 30 h cumulative amt [2, 10]: 51.6 ± 9.1 nmol | 30 h skin conc [2, 10]: 10.5 ± 6.5 µmol/g | Flux [2, 10]: 3.9 ± 0.2 nmol/cm^2/h | 30 h cumulative amt [2, 11]: 148.6 ± 54.0 nmol | 30 h skin conc [2, 11]: 21.2 ± 4.8 µmol/g | Flux [2, 11]: 8.2 ± 2.6 nmol/cm^2/h | 24 h cumulative amt [2, 3]: 12.3 ± 8.1 nmol | 24 h skin conc [2, 3]: 9.0 ± 2.2 µmol/g | Flux [2, 3]: 0.8 ± 0.4 nmol/cm^2/h | Lag time [2, 3]: 8.5 ± 2.1 h | 24 h cumulative amt [2, 12]: 6.5 ± 3.8 nmol | 24 h skin conc [2, 12]: 15.6 ± 4.2 µmol/g | Flux [2, 12]: 0.4 ± 0.2 nmol/cm^2/h | Lag time [2, 12]: 5.3 ± 1.7 h | 24 h skin conc ([2]; Table 22, anhydrous gel formulation, 40% aqueous PEG 400 receiver fluid, as applied compound (CBD or intact prodrug)): 3.3 ± 1.3 µmol/g | 24 h cumulative amt [2, 13]: 3.0 nmol | 24 h skin conc [2, 13]: 27.7 ± 24.6 µmol/g | Flux [2, 13]: 0.29 nmol/cm^2/h | Lag time [2, 13]: 12.8 h | concentrations in the skin, anhydrous gel formulation compared to the ethanol based gel formulation ([2]; anhydrous gel versus ethanol based gel): much lower
